Test results taken from patent publication US20210023089A1, “Compositions Useful for Treating Herpes Simplex Keratitis, and Methods Using Same” (priority 2013, published 2021).

Columns and labels:
HSV-1 [1] = assay: Ex vivo HSV-1 infection of explanted human corneas, qPCR of viral genome; type: cell-based, HSV-1 (KOS strain); conditions: 48 hpi; for viral genome replication in corneal epithelium (qPCR): 1×10^4 PFU/cornea
Experimental: (§1) Human corneas were obtained from the Lions Eye Bank of Delaware Valley. Rabbit corneas were excised from intact fresh eyeballs of young (8-12 weeks) albino rabbits (Pel-Freez Biologicals, Rogers, Ark.). Protocol (Alekseev et al., 2012, J Vis Exp 69:e3631) for ex vivo corneal culture, infection, and treatment was followed closely. Briefly, corneoscleral buttons were excised and rinsed in PBS containing 200 U/mL penicillin and 200 μg/mL streptomycin. The endothelial concavity was filled with culture medium containing 1% low melting temperature agarose. The corneas were cultured epithelial side up in MEM medium supplemented with nonessential amino acids (1×), 2 mM […], 200 U/mL penicillin, and 200 μg/mL streptomycin. The next day, they were infected with 1×10^4 plaque forming units (PFU)/cornea of strain KOS HSV-1 for 1 hour, rinsed, and overlaid with fresh medium. Drug treatments were administered at the same concentrations as for cultured cells. For KU-55933 bioavailability assessment, corneas were treated with bleomycin (200 μg/mL) for 1 hour. The epithelial cell layer was collected by scraping to isolate DNA or protein. For immunohistochemistry studies, corneas were flash frozen in optimal cutting temperature (OCT) compound, sectioned, and immunostained using standard protocols. Treatment toxicity was assessed by briefly staining the cornea with fluorescein (1% wt/vol in PBS) and imaging the epithelial defects with 464-nm wavelength blue light (LDP LLC, Carlstadt, N.J.).
(§2) Viral genome replication and transcription were measured by quantitative PCR (qPCR). Total DNA and RNA from infected cells were isolated using the DNeasy Blood & Tissue Kit and the RNeasy Mini Kit, respectively (QIAGEN, Hilden, Germany). RNA was converted to cDNA using qScript (Quanta BioSciences, Gaithersburg, Md.). Real-time qPCR was performed with SYBR Green (Bio-Rad, Hercules, Calif.). Target primers for UL30 (DNA polymerase catalytic subunit) and reference primers for glyceraldehyde 3-phosphate dehydrogenase (GAPDH) were used to measure genome replication. Transcription of the three gene families was measured with primers for RL2 (ICPO), UL30 (DNA polymerase catalytic subunit), and UL44 (gC), with reference primers for the 18S ribosomal RNA (rRNA).
Human corneas were obtained from the Lions Eye Bank of Delaware Valley. Rabbit corneas were excised from intact fresh eyeballs of young (8-12 weeks) albino rabbits (Pel-Freez Biologicals, Rogers, Ark.). […]
(§3) Total DNA from infected cells and corneas was isolated using the DNeasy Blood & Tissue Kit (QIAGEN, Hilden, Germany). Real time quantitative PCR was performed with SYBR Green (Bio-Rad, Hercules, Calif.). […]

HSV-1 [2] = assay: Ex vivo HSV-1 infection of explanted rabbit corneas, qPCR of viral genome; type: cell-based, HSV-1 (KOS strain); conditions: for viral genome replication in corneal epithelium (qPCR): 1×10^4 PFU/cornea, 10 μM
Experimental: as §1, §2
Human corneas were obtained from the Lions Eye Bank of Delaware Valley. Rabbit corneas were excised from intact fresh eyeballs of young (8-12 weeks) albino rabbits (Pel-Freez Biologicals, Rogers, Ark.). The protocol (Alekseev et al., 2012, J. Vis. Exp. e3631) for ex vivo corneal culture and infection was followed, and treatment was administered immediately after infection. Briefly, corneoscleral buttons were excised and rinsed in PBS containing 200 U/ml penicillin and 200 μg/ml streptomycin. The endothelial concavity was filled with culture medium containing 1% low melting temperature agarose. The corneas were cultured epithelial side up in MEM medium supplemented with non-essential amino acids (1×), 2 mM […], 200 U/ml penicillin, and 200 μg/ml streptomycin. The next day, they were infected with 1×10^4 PFU/cornea of strain KOS HSV-1 for 1 hour, rinsed, and overlaid with fresh medium. Drug treatments were administered at the same concentrations as for cultured cells. […]
as §3

HSV-1 [3] = assay: qRT-PCR of viral transcripts in HSV-1 infected hTCEpi cells; type: cell-based, HSV-1 (KOS strain); conditions: MOI 0.1, 10 μM, 16 hpi
Experimental: The following strains of HSV-1 were used: KOS, ICPO-null, HFEM, and tsB7. Subconfluent monolayers of cells were grown in six-well plates. Drug treatments were administered 45 minutes prior to infection and continued for the entire duration of each experiment. Unless indicated otherwise, KU-55933 (Batch No. 5, 99.7% purity; Tocris Bioscience, Bristol, UK) was used at 10 μM final concentration, phosphonoacetic acid (PAA) at 400 μg/mL (Sigma-Aldrich, St. Louis, Mo.), and acyclovir at 50 μg/mL (Sigma-Aldrich). KU-55933 was dissolved in dimethyl sulfoxide (DMSO), and the final concentration of DMSO in both KU-55933 and mock treatment in the in vitro and the ex vivo experiments was 0.1%.
as §2, with “Target primers for UL30 (DNA polymerase catalytic subunit) and reference primers for glyceraldehyde 3-phosphate dehydrogenase (GAPDH) were used to measure genome replication.” left out

ATM = target: T1, ATM (Homo sapiens, UniProt Q13315); assay: pATM Western blot in bleomycin-damaged ex vivo human corneas (bioavailability); type: cell-based; conditions: bleomycin 200 μg/mL 1 hour, KU-55933 10 μM 1 hour pretreatment
T1 construct: The epithelial layers were collected for protein lysates and analyzed by Western blot with antibodies against pATM (Ser1981) and total ATM; tissue Lions Eye Bank of Delaware Valley; host or cells: epithelial layer of explanted human corneas
T1 sequence (Q13315 whole entry): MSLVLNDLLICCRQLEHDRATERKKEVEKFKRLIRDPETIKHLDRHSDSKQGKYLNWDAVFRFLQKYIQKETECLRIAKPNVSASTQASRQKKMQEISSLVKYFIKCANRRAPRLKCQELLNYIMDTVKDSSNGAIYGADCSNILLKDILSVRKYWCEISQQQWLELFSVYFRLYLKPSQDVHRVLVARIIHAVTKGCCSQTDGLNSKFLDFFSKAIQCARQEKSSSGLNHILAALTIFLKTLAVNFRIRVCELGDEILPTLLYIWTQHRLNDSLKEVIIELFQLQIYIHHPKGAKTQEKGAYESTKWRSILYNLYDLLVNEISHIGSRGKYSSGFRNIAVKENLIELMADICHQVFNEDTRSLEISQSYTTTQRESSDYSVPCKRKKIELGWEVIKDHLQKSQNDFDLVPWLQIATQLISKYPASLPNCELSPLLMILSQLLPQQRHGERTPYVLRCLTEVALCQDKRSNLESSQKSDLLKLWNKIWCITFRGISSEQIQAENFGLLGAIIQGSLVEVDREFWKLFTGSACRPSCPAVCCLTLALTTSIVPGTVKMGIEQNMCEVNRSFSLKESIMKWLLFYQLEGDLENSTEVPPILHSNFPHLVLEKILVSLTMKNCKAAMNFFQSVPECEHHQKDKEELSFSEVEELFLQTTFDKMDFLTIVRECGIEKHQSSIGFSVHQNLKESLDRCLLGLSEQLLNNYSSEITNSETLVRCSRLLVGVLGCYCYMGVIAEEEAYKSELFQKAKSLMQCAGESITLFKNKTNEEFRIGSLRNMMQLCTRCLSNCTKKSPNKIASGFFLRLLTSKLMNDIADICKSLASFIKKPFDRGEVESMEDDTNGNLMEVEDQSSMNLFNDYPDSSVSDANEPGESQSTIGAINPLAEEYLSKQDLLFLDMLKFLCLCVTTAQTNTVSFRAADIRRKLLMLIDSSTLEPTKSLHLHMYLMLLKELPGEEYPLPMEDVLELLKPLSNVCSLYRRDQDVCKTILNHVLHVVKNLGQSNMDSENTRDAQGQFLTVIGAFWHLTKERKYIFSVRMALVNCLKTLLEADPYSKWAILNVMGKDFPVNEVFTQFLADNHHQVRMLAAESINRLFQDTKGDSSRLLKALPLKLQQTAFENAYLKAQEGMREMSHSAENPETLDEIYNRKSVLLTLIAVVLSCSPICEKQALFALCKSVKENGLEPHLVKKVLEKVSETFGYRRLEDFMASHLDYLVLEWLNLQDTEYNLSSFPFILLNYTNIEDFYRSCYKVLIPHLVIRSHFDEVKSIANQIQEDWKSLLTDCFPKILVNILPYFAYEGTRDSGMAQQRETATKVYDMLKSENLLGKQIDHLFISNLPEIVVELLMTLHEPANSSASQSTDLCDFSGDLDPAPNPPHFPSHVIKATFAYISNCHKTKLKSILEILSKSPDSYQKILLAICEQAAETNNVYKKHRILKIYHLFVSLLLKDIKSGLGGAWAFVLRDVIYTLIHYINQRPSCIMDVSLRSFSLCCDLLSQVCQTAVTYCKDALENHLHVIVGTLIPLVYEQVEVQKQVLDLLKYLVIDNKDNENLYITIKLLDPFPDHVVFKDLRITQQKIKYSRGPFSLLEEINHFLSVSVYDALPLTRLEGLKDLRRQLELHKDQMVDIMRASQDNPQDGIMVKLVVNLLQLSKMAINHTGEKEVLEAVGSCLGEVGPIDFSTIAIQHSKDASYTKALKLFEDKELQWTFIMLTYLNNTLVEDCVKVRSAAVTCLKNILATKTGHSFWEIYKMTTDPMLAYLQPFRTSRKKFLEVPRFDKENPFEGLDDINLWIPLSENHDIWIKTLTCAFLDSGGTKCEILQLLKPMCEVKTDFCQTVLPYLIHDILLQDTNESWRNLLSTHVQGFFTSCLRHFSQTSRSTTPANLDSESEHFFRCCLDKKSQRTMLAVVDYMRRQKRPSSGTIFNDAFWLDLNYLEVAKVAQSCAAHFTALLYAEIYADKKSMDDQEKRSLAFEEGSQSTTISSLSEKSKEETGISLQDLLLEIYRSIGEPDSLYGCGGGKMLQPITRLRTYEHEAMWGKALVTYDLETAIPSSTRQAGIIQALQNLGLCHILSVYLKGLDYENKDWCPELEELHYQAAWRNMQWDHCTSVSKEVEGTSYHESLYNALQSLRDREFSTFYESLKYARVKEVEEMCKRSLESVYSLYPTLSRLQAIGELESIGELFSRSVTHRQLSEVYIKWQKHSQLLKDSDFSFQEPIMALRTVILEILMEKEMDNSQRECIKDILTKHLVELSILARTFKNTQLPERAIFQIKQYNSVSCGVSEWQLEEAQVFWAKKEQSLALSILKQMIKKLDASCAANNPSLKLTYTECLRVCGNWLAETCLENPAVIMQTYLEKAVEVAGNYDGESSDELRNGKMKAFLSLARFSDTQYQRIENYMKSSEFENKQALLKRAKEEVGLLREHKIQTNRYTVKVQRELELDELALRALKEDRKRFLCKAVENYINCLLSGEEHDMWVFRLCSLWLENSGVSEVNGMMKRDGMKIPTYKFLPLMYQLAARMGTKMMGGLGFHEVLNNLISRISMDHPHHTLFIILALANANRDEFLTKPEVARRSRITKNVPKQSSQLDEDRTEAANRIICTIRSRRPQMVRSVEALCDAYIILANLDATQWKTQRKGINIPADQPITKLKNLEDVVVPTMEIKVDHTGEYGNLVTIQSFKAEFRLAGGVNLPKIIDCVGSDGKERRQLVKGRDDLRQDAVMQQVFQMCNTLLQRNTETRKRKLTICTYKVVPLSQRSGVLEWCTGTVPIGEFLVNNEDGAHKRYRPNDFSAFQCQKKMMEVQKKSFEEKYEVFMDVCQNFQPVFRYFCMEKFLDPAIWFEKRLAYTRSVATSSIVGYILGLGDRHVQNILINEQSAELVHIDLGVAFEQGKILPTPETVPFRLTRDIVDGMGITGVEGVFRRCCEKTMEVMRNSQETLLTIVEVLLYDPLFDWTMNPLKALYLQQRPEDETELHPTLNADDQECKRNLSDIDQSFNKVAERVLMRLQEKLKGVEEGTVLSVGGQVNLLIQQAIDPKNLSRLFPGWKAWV
Experimental: as §1, with “The epithelial cell layer was collected by scraping to isolate DNA or protein. For immunohistochemistry studies, corneas were flash frozen in optimal cutting temperature (OCT) compound, sectioned, and immunostained using standard protocols.” left out
Standard protocol was followed for Western blot analysis. […] Protein concentrations were measured by bicinchoninic acid (BCA) assay. […]

Structure (SMILES) | difference in viral genome levels versus positive controls treated with PAA (HSV-1 [1]; human corneas, 10 μM, PAA 400 μg/ml) | viral genome replication in corneal epithelium (qPCR) (HSV-1 [1]; human corneas, 10 μM) | HSV-1 inhibition in rabbit compared with human corneas (HSV-1 [2]; Chk2 inhibitor II 10 μM, 48 hpi) | HSV-1 growth following the removal of inhibitor (HSV-1 [2]; rabbit corneas, 10 μM for 48 hours, then inhibitor-free medium) | time to which the effect of inhibition was maintained (HSV-1 [2]; rabbit corneas, 10 μM for 48 hours, then inhibitor-free medium for 48 hours, latest time point tested) [hpi] | viral genome replication in corneal epithelium (qPCR) (HSV-1 [2]; rabbit corneas, 48 hpi) | levels of viral transcripts (ICP0, DNA polymerase, glycoprotein C) (HSV-1 [3]) | pATM level in corneal epithelium (ATM) | effect on viral genome replication, human compared with rabbit corneas (HSV-1 [1]; KU-55933 10 μM)
NC(=O)c1ccc2[nH]c(-c3ccc(Oc4ccc(Cl)cc4)cc3)nc2c1 [Chk2 inhibitor II, 2-(4-(4-chlorophenoxy)phenyl)-1H-benzimidazole-5-carboxamide] | no statistical significance | did not support productive infection | slightly less potent | resume normal growth | ≥ 96 | did not support productive infection |  |  | 
O=c1cc(-c2cccc3c2Sc2ccccc2S3)oc(N2CCOCC2)c1 [KU-55933, 2-(morpholin-4-yl)-6-(thianthren-1-yl)-pyran-4-one] |  | greatly reduced |  |  |  | greatly reduced | reduced | completely eliminated | more pronounced in human corneas
